According to BindingDB's records for doi:10.1016/s0960-894x(03)00742-x (Keio University, 2003):

Target: alpha-L-fucosidase (Bos taurus)
Assay: Inhibitory activity against alpha-Fucosidase in bovine kidney

Q: How did the IC50 turn out when C[C@@H]1CC(NCCc2ccccc2)[C@@H](O)[C@@H](O)[C@@H]1O (some centres not stated) was run?
A: The IC50 was 7.5 µM.

Q: For CCCCCCCCCCCCN[C@H]1CC(C)[C@@H](O)C(O)[C@@H]1O (stereo partly drawn) [(1R,3R,4S)-4-Dodecylamino-6-methyl-cyclohexane-1,2,3-triol], which IC50 is on record?
A: The IC50 was 1.2 µM.
